“Also recorded” adds a separate entry of the source.
Tests used:
[1] = Aldoxorubicin retention in brain tumors and surrounding brain tissue by HPLC; assay type: in vivo, mice; conditions: i.v. 24 mg/kg, 6 and 24 h after injection
Protocol: (§1) HPLC System and Conditions: The HPLC system used was an Agilent 1100 Series (Wilmington, Del., USA) equipped with a scanning fluorescent detector with excitation and emission wavelengths set at 480 and 560 nm, respectively. Agilent Chemstation software was used for data acquisition. Separation was achieved on a Waters Spherisorb ODS2 column (4 mm×250 mm, 5 μm) fitted with a guard cartridge (BDS-Hypersil-C18, 5 μM). Elution was performed with mobile phase comprised of 65% 50 mM monosodium phosphate, pH 2.2, and 35% acetonitrile. A constant flow rate of 1.25 ml/min was used for the separation. The column was set to 28° C. and the injection volume was 25 μl.
Sample preparation: For quantification of aldoxorubicin in brain tissue and brain tumors, mice were euthanized by CO2 inhalation 6 and 24 h after aldoxorubicin injection (24 mg/kg/inj), brains were harvested and tumors were resected. The harvested tissues were stored at −80° C. until analysis.
Frozen samples were thawed at room temperature and homogenized in sterile saline using a PowerGen Model 125 homogenizer (Fisher Scientific) to obtain final tissue concentrations (w/v) of 150 mg/ml. Perchloric acid (35%, v/v) was then added to a […] aliquot followed by 25 μl of mobile phase. […] In the tissue samples analyzed, aldoxorubicin eluted with the retention time of doxorubicin.

[2] = Drug detection in cryosections of brain tissues of tumor-bearing mice (immunohistochemistry, confocal); conditions: drug fluorescence
Protocol: Immunohistochemistry: For histologic analysis, brain tissues from control and drug-treated tumor-bearing mice were harvested, snap frozen in optimal cutting temperature (OCT) compound and stored at −80° C. Cryostat sections were placed on slides and fixed in zinc-buffered formalin. Slides were blocked with 5% goat serum in 1% BSA followed by overnight incubation with primary antibodies against CD31 (102402, Biolegend, San Diego, Calif.), Ki-67 (ab156956, Abcam, Cambridge, Mass.), Vimentin (ab92547, Abcam), cleaved-Caspase-3 (CP229B, Biocare Medical), and GFAP (NB300-141, Novus Biologicals, Littleton, Colo.). Slides were then incubated with primary antibody source-specific secondary antibodies conjugated to Alexa Fluor 488 or 635 and DAN as a nuclear counterstain. The detection fluorophores used were limited to those around the inherent fluorescence spectra of doxorubicin (λex=480 nm, λem=550-590 nm) (22876313) to avoid bleed-through and enable co-detection of the drug with respect to certain antigens. Epifluorescence photomicrographs were captured at 100× and 400× magnification using an FV1000 confocal microscope (Olympus of America, Center Valley, Pa.) equipped with multi-Argon, 405, 559, and 635 diodes. Quantitative analysis was performed with Slidebook software (Intelligent Imaging Innovations, Denver, Colo.).

[3] = Maximum tolerated dose in mice; assay type: in vivo; conditions: intravenous
U87-luc glioma cells [4] = assay: Intracranial U87-luc glioblastoma xenograft in mice, Example 1 (bioluminescent imaging, survival); assay type: in vivo; conditions: for difference in tumor growth between 8 days and 22 days within the group: aldoxorubicin p>0.05, doxorubicin p<0.05; for survival time compared with vehicle-treated mice (Kaplan-Meier): result in words, aldoxorubicin also vs doxorubicin-treated group
Protocol: Intracranial implantation of U87-luc glioma cells in mice: A U87MG subline, U87-luc with a luciferase reporter gene was used for establishing intracranial human glioblastoma tumors. Female BALB/c (nu/nu) mice, 6-8 weeks of age, were anesthetized with a ketamine/xylazine cocktail solution. Animals were secured in a Harvard Apparatus stereotaxic head frame, a 1 cm midline scalp incision was made, and 5×10^5 cells in 5 μL serum-free DMEM were injected into the left striatum (coordinates: 2.5 mm lateral and 0.5 mm posterior to the bregma) through a burr hole in the skull using a 10 μl Hamilton syringe to deliver tumor cells to a 3.5 mm intraparenchymal depth. The burr hole in the skull was sealed with bone wax and the incision closed using wound glue. Tumor growth was evaluated by bioluminescent imaging.
Aldoxorubicin treatment of mice: The study consisted of 8 vehicle-treated control mice (group C), 8 doxorubicin-treated mice (group D), and 8 aldoxorubicin-treated mice (group A). Treatment was initiated twelve days after intracranial implantation of glioblastoma multiforme (GBM) cells. Vehicle (10 mM sodium phosphate, 5% D-(+)-glucose, pH 6.4) or aldoxorubicin was administered intravenously for a total of six injections (i.e., 12, 19, 26, 42, 50, and 56, days after cell implantation). All the doses were ˜75% of the maximum tolerated dose (MTD) of 32 mg/kg/inj in mice except that the dose given after 50 days of cell implantation was 50% of the MTD. Doxorubicin was administered intravenously for a total of two injections (i.e., 12 and 19 days after cell implantation) with ˜75% of the MTD of 8 mg/kg/inj. Both the drugs and the vehicle were administered using an injection volume of 0.15 ml.
In vivo imaging of intracranial tumors: Intracranial tumor growth was quantified by bioluminescent imaging using an in vivo imaging system (Xenogen, Palo Alto, Calif.). All mice were given an IP injection of 100 μl of 30 mg/ml D-luciferin (PerkinElmer) suspended in DPBS 10 minutes before imaging to provide a substrate for the luciferase enzyme. Prior to imaging, mice were anesthetized with inhalation of isoflurane gas. Images were captured using the Xenogen Ivis 200 imaging system and quantified with Living Image 4.1 software from Xenogen for a region of interest that encompassed the head of the mouse. Image intensities were expressed as photons/sec/cm^2/sr.
Statistical Analysis: The log-rank test was used to create Kaplan-Meier survival curves to compare survival between control and drug-treated mice using the Statistical Analysis Software of SAS Institute, Inc., Cary, N.C. Differences between groups were assessed using the unpaired Student's t test. AR values are shown as the mean±standard deviation. A p value≤0.05 was considered statistically significant.

[5] = Aldoxorubicin/doxorubicin detection in brain tumors by stereomicroscope epifluorescence; assay type: in vivo, mice; conditions: 24 h following the last injection; epifluorescence of whole brains
Protocol: Aldoxorubicin/doxorubicin detection in brain tumors: Tumor-bearing mice were given intravenous injections of aldoxorubicin or doxorubicin as described above in Example 1. Mice were euthanized 24 h following the last injection. Brains were harvested and imaged using an MVX10 stereomicroscope (Olympus of America) equipped for brightfield and epifluorescence with filters encompassing doxorubicin-specific wavelengths to visualize drug accumulation.

U87-luc glioma cells [6] = assay: Intracranial U87-luc glioblastoma xenograft in mice, Example 2 (bioluminescent imaging, survival); assay type: in vivo
Protocol: Female mice (6-8 weeks of age) were implanted intracranially with U87-luc subline with luciferase reporter gene to establish human glioblastoma tumors. Tumor growth was evaluated by bioluminescent imaging using D-luciferin substrate. 8 mice were treated with aldoxorubicin and 8 were treated with phosphate buffer saline (vehicle). Treatment started 9 days after implantation of the GBM cells. Aldoxorubicin or vehicle was administered i.v. once a week for three weeks (9, 16, and 23 days after cell implantation). The first two doses of aldoxorubicin were 75% and the third dose was 50% of the MTD of 32 mg/kg/injection in mice.

[7] = Plasma and tissue distribution by HPLC in intracranial tumor-bearing mice; assay type: in vivo
Protocol: as §1, with “An” for “The HPLC system used was an”, “Series HPLC System” for “Series”, “having” for “equipped with”, “respectively, was used.” for “respectively.”, “containing” for “comprised of”, “65%” for “65% 50 mM”
Sample preparation: Aldoxorubicin, 24 mg/kg/inj (75% of the MTD), was administered in intracranial GBM tumor-bearing mice through tail vein injection, and after 4, 8, 16, and 24 h after injection, mice (3 animals at each time point) were euthanized by CO2 gas. Blood samples were collected by heart puncture in heparinized tubes, and centrifuged for plasma separation. Immediately after blood sampling, organs (brain, heart, kidney liver and lung) were surgically removed. The plasma and tissues were stored at −80° C. until analysis.
Frozen samples were thawed at room temperature and homogenized in sterile saline using a PowerGen Model 125 homogenizer (Fisher Scientific) to obtain final tissue concentrations (w/v) of 150 mg/ml for the liver and brain; 125 mg/ml for the lung, heart and muscle; and 100 mg/ml for kidney. Perchloric acid (35%, v/v) was added to a 20 μl aliquot of plasma or tissue samples followed by 25 μl of mobile phase. The samples were vortexed followed by centrifugation at 10,000×g for 10 min. and 25 μl of the supernatant was applied to the HPLC column.

[8] = test system: glioblastoma growing in the brain; conditions: literature; cited from earlier work
[9] = literature; cited from earlier work
[10] = biological target: P-glycoprotein efflux pumps (Homo sapiens, UniProt P08183); conditions: literature; cited from earlier work
P-glycoprotein efflux pumps, sequence (P08183 whole entry): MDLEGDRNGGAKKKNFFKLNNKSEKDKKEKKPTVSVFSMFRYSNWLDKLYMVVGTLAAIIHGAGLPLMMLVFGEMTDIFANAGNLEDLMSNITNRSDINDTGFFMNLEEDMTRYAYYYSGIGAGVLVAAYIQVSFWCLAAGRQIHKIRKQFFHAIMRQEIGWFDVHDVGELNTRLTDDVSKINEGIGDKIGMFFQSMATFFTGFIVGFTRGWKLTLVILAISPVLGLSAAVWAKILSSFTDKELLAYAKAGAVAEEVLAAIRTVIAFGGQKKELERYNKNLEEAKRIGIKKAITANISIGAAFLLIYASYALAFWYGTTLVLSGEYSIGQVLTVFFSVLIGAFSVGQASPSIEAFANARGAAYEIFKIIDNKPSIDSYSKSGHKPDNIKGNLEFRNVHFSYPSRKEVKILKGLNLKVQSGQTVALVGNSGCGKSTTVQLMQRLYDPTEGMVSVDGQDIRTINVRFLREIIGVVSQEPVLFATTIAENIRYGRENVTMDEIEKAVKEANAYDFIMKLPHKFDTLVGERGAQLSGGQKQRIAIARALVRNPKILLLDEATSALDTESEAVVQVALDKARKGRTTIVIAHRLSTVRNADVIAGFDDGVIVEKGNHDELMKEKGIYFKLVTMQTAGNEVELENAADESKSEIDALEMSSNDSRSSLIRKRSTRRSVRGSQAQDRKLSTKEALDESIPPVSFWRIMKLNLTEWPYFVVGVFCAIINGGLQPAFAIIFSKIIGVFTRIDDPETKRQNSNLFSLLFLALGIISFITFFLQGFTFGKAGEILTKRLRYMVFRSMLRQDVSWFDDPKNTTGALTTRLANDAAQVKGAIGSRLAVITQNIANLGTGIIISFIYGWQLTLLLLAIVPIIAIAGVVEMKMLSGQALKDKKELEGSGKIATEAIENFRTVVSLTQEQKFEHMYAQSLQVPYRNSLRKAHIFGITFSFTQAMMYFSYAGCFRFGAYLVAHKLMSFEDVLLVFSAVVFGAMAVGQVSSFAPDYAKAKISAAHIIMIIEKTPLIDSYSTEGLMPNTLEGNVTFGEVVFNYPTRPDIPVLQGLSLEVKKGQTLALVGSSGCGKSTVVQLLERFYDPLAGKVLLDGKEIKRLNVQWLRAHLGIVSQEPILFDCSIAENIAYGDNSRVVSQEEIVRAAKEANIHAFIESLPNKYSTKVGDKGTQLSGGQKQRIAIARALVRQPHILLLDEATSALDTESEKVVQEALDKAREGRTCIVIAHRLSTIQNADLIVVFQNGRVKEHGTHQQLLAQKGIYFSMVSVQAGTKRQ

Glioblastoma cell lines = conditions: literature; cited from earlier work
[11] = 22 days after implantation, aldoxorubicin treatment for 2 weeks, radiance
[12] = administered intravenously, intracranial human GBM tumors
[13] = i.v. 24 mg/kg (~75% of the MTD)

COc1cccc2c1C(=O)c1c(O)c3c(c(O)c1C2=O)C[C@@](O)(/C(CO)=N/NC(=O)CCCCCN1C(=O)C=CC1=O)C[C@@H]3OC1CC(N)C(O)C(C)O1.Cl (some centres unmarked) [aldoxorubicin]
retention in tumor tissues relative to surrounding brain tissues [1]: 3- to 4 fold | accumulation in brain tumor and normal brain tissue [2]: accumulates in the brain tumor but not in normal brain tissue | maximum tolerated dose (MTD) [3]: 32 mg/kg/inj | average tumor size relative to the control group (U87-luc glioma cells [4]; [11]): 28% | average tumor size relative to the doxorubicin treatment group (U87-luc glioma cells [4]; [11]): 40% | survival of animals 34 days after tumor implantation (U87-luc glioma cells [4]; 34 days, group of 8 mice): remained alive | overall antitumor result (U87-luc glioma cells [4]; [12]): induces tumor regression and significantly increases survival | animals still alive (U87-luc glioma cells [4]; after 41 days): seven of the eight | difference in tumor growth between 8 days and 22 days within the group (U87-luc glioma cells [4]; radiance): no relative difference in tumor growth | survival time compared with vehicle-treated mice (Kaplan-Meier) (U87-luc glioma cells [4]): increased survival times; also recorded: survived a longer time | accumulation in glioblastoma tumors [5]: accumulates in glioblastoma tumors | mice with tumor regrowth (U87-luc glioma cells [6]; Day 29): 2 | mice dead (U87-luc glioma cells [6]; Day 29, group of 8 mice): 1 | other mice with tumor regrown (U87-luc glioma cells [6]; Day 33): 4 | mice dead (U87-luc glioma cells [6]; Day 33, group of 8 mice): 3 | overall antitumor result (U87-luc glioma cells [6]; [12]): induces tumor regression and increases survival | mice with detectable tumor (U87-luc glioma cells [6]; at 21 days, group of 8 mice): 1 | survival compared with vehicle (Kaplan-Meier) (U87-luc glioma cells [6]; result in words): survived longer | levels in the brain over time ([7]; from 4 h to 24 h, total brain tissue of tumor-bearing mice): remained almost same | plasma concentration relative to that in the brain [7, 13]: more than 200 fold | plasma concentration relative to the mean concentration in liver, heart, lung and kidney [7, 13]: more than 20 fold | time of highest drug concentration ([7]; plasma and other organs except brain, i.v. 24 mg/kg (~75% of the MTD)): 4 h | time to reach nearly 50% of its concentration ([7]; plasma and other tissues except the brain): 20 h

COc1cccc2c1C(=O)c1c(O)c3c(c(O)c1C2=O)C[C@@](O)(C(=O)CO)C[C@@H]3O[C@H]1C[C@H](N)[C@H](O)[C@H](C)O1 [doxorubicin, reference compound]
effect on glioblastoma growing in the brain [8]: no effect | accumulation in brain tumor and normal brain tissue [2]: not found in any appreciable amount in either the tumor or normal brain | maximum tolerated dose (MTD) [3]: 8 mg/kg/inj | ability to cross the BBB [9]: lacks the ability to cross the BBB | free concentration in glioma tissues [9]: below effective levels | time after tumor implantation within which all animals died (U87-luc glioma cells [4]; group of 8 mice): ≤ 34 days | animals died (U87-luc glioma cells [4]; in 22 days, group of 8 mice): 2 | difference in tumor growth between 8 days and 22 days within the group (U87-luc glioma cells [4]; radiance): a relative difference in tumor growth | survival time compared with vehicle-treated mice (Kaplan-Meier) (U87-luc glioma cells [4]): no difference in the survival time; also recorded: no difference in the survival curves | P-glycoprotein efflux pump substrate [10]: substrate of the P-glycoprotein efflux pumps | accumulation in glioblastoma tumors [5]: not doxorubicin accumulates | effect on glioblastoma cell lines (Glioblastoma cell lines): driven to apoptosis following growth arrest

— patent publication US10881678B2, “Cytotoxic agents for the treatment of cancer” (CytRx Corporation, priority 2013, dated 2021)
